# Data: ChEMBL document CHEMBL1136040, “Specific accumulation and growth inhibitory effects of hybrid liposomes to hepatoma cells in vitro” (Bioorg Med Chem Lett, 2002)
# Test system: HepG2
# Assay: Compound was tested for its inhibition on growth of human hepatoma cells (Hep-G2); No inhibitory effects was observed
# Format: functional, cell-based
row,SMILES,inhibition
1,CCCCCCCCCCCCCC(=O)OCC(COP(=O)([O-])OCC[N+](C)(C)C)OC(=O)CCCCCCCCCCCCC (configuration not stated),No inhibition
2,CCCCCCCCCCCCCC(=O)OCC(COP(=O)([O-])OCC[N+](C)(C)C)OC(=O)CCCCCCCCCCCNc1ccc([N+](=O)[O-])c2nonc12 (configuration not stated),No inhibition
